Experimental data taken from PubChem BioAssay (NCI).
Several values for one entry are separate records, joined by “and”; a condition that tells them apart may be missing. Equal values may be shown once.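 Following 48 hours of exposure in 96-well plates, responses at five concentrations were used to interpolate endpoints linearly. GI50: concentration for 50% inhibition of growth. TGI is the concentration that stops growth completely.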

How the values were obtained:
Test in all cases: inhibition of tumour cell growth, NCI panel, 48 h
HT29 colon = test system: HT29 colon
KM12 colon = test system: KM12 colon
LOX IMVI melanoma = test system: LOX IMVI melanoma
786-0 renal = test system: 786-0 renal
HOP-62 NSCLC = test system: HOP-62 NSCLC
UACC-62 melanoma = test system: UACC-62 melanoma
HCC-2998 colon = test system: HCC-2998 colon
SF-539 CNS = test system: SF-539 CNS
NCI-H23 lung = test system: NCI-H23 lung
HCT-15 colon = test system: HCT-15 colon

SMILES | TGI (HT29 colon) | TGI (KM12 colon) | TGI (LOX IMVI melanoma) | TGI (786-0 renal) | TGI (HOP-62 NSCLC) | TGI (UACC-62 melanoma) | TGI (HCC-2998 colon) | TGI (SF-539 CNS) | TGI (NCI-H23 lung) | TGI (HCT-15 colon) | GI50 (HT29 colon) | GI50 (KM12 colon) | GI50 (LOX IMVI melanoma) | GI50 (786-0 renal) | GI50 (UACC-62 melanoma) | GI50 (HCC-2998 colon) | GI50 (SF-539 CNS) | GI50 (NCI-H23 lung) | GI50 (HCT-15 colon) | GI50 (HOP-62 NSCLC)
O=C1CC(CC(=O)C2CCCCC2=O)C(=O)N1 (stereo unspecified) | > 100 µM | > 100 µM | > 100 µM | > 100 µM | > 100 µM | > 100 µM | > 100 µM | > 100 µM | > 100 µM |  |  |  |  |  |  |  |  |  |  | 
C1CSCCCSCCCSCCCSCCCSCCCSCCCSCCCSC1 | > 100 µM | > 100 µM | > 100 µM | > 100 µM | > 100 µM |  | > 100 µM | > 100 µM | > 100 µM | > 100 µM |  |  |  |  |  |  |  |  |  | 
C/C=C/C(C#N)O[Si](C)(C)C (stereo unspecified) | > 100 µM | > 100 µM |  | > 100 µM | > 100 µM | > 100 µM | > 100 µM | > 100 µM | > 100 µM | > 100 µM |  |  |  |  |  |  |  |  |  | 
Cc1c(OC(C)C(=O)O)ccc2c(-c3ccccc3)cc(=O)oc12 (stereo unspecified) | > 100 µM | > 100 µM | > 100 µM | > 100 µM | > 100 µM | > 100 µM | > 100 µM | > 100 µM | > 100 µM |  |  |  |  |  |  |  |  |  |  | 
C[C@@H](NC(C#N)c1ccco1)c1ccccc1 (stereo partly specified) | > 100 µM | > 100 µM |  | > 100 µM | > 100 µM | > 100 µM | > 100 µM | > 100 µM | > 100 µM | > 100 µM |  |  |  |  |  |  |  |  |  | 
N#C[Se]Cc1cc(-c2ccccc2)n(-c2ccc(S(N)(=O)=O)cc2)n1 | 3.36 µM | 3.22 µM | 0.324 µM | 6.49 µM |  | 3.75 µM | 4.94 µM | 2.77 µM | 2.55 µM | 5.55 µM | 1.46 µM | 0.881 µM | 0.171 µM | 2.63 µM | 1.66 µM | 2.24 µM | 1.38 µM | 0.495 µM | 2.05 µM | 
Cn1ncc(-c2ccc3c(=O)[nH]nc(CN)c3c2)c1-c1c(F)c(Cl)cc(OC2CC2)c1C#N | 29.6 µM and 22.7 µM | 28.3 µM and 25.6 µM | 25.6 µM and 26.2 µM | 29.5 µM and 26 µM | 33.7 µM and 27.8 µM |  | 28 µM and 28.3 µM | 28 µM and 26.7 µM | 32 µM and 29.6 µM | 30 µM and 28.9 µM | 11.6 µM and 10.3 µM | 13.9 µM and 12.4 µM | 12.5 µM and 12.9 µM | 13.4 µM and 12.3 µM |  | 14.2 µM and 14.5 µM | 14.4 µM and 13.1 µM | 15.3 µM and 14.3 µM | 14.7 µM and 14.3 µM | 16.1 µM and 13.4 µM
N=C1C(O)C2(I)c3ccccc3N3C(=N)C(O)C4c5ccccc5N1C4C32 (stereo unspecified) | > 100 µM | 34.8 µM | > 100 µM | > 100 µM | > 100 µM | > 100 µM |  |  | > 100 µM | > 100 µM |  |  |  |  |  |  |  |  |  | 
O=C(NCCCOC(=O)CCCCCCCCC(=O)OCCCNC(=O)NC(=O)c1c[nH]c(=O)[nH]c1=O)NC(=O)c1c[nH]c(=O)[nH]c1=O |  | > 100 µM | > 100 µM | > 100 µM | > 100 µM | > 100 µM | > 100 µM | > 100 µM | > 100 µM | > 100 µM |  |  |  |  |  |  |  |  |  | 
CC(C)=CCN1c2ccccc2NC(=O)CC1C (stereo unspecified) | > 100 µM | > 100 µM | > 100 µM | > 100 µM | > 100 µM |  | > 100 µM | > 100 µM | > 100 µM | > 100 µM |  |  |  |  |  |  |  |  |  | 
CC(=O)OCc1c2ccccc2c(C)c2c1cc(F)c1ccccc12 | 42.4 µM | > 100 µM | 46.3 µM | 82.3 µM | > 100 µM | 43.6 µM | 72.3 µM | 59.4 µM | 68.4 µM |  |  |  |  |  |  |  |  |  |  | 
CC(=O)c1c(O)c(C)c(O)c(Cc2c(O)c3c(c(C(=O)/C=C/c4ccccc4)c2O)OC(C)(C)C=C3)c1O | 13.1 µM | 16.7 µM | 14.3 µM | 18.7 µM |  | 10 µM | 11.1 µM | 26.5 µM | 14 µM | 14.3 µM |  |  |  |  |  |  |  |  |  | 
Clc1ccc(-c2cn3ccnc3c(-c3ccc(Cl)cc3)n2)cc1 | > 100 µM | 37.9 µM | 31.5 µM | > 100 µM | > 100 µM | > 100 µM |  | > 100 µM | 80.1 µM | 30.9 µM | 12.5 µM | 5.33 µM | 12.7 µM | 29.5 µM | 36.2 µM |  | 26.2 µM | 24.3 µM | 3.38 µM | 31.4 µM
CCc1cccc(C)c1NS(=O)(=O)c1ccccc1 | > 100 µM | > 100 µM |  | > 100 µM | > 100 µM | > 100 µM | > 100 µM | > 100 µM | > 100 µM | > 100 µM |  |  |  |  |  |  |  |  |  | 
O=C1Nc2ccccc2C1(O)C/C(=N/O)c1ccc2ccccc2c1 (stereo unspecified) | > 100 µM | > 100 µM | 81.9 µM | > 100 µM | > 100 µM |  | > 100 µM | > 100 µM | > 100 µM | > 100 µM |  |  |  |  |  |  |  |  |  | 
COc1cccc(-c2nc3cc(NC(=O)c4ccc(Cl)c(C#N)c4)ccc3o2)c1 |  | 4.48 µM | > 100 µM | 3.33 µM | > 100 µM | > 100 µM |  | 3.37 µM | 4.15 µM | > 100 µM |  | 1.95 µM | 3.7 µM | 1.74 µM | 3.29 µM |  | 1.68 µM | 1.69 µM | > 100 µM | 12.9 µM
O=C1C=CC(=O)c2c1ccc1c3ccccc3n(Cc3ccc([N+](=O)[O-])cc3)c21 | > 100 µM | > 100 µM |  | > 100 µM | > 100 µM | > 100 µM | > 100 µM | > 100 µM | > 100 µM | > 100 µM |  |  |  |  |  |  |  |  |  | 
COC(=O)C1=CO[C@@H](OC2CC(CO)C(O)C(O)C2O)[C@@H]2[C@@H](C)[C@@H](OC(=O)/C=C/c3ccccc3)[C@@H](O)[C@H]12 (stereo partly specified) (tested in a mixture with another compound) | > 100 µM | > 100 µM | > 100 µM | > 100 µM | > 100 µM | > 100 µM | > 100 µM | > 100 µM | > 100 µM |  |  |  |  |  |  |  |  |  |  | 
Cn1c(=O)nc2n(-c3ccc(O)cc3)c3ccccc3nc-2c1=O | > 100 µM | > 100 µM |  | > 100 µM | > 100 µM | 52.5 µM | > 100 µM | 59.7 µM | > 100 µM | > 100 µM |  |  |  |  |  |  |  |  |  | 
C[N+](C)(C)CCC(=O)CC[N+](C)(C)C | 31.6 µM | 42.2 µM |  | 46.5 µM | > 100 µM | 41.4 µM | 53.9 µM | 41 µM | 55.9 µM | 42.9 µM |  |  |  |  |  |  |  |  |  | 
COC(=O)c1sc(C(=O)OC)c2c1CS(=O)C2 | > 100 µM | > 100 µM | > 100 µM | > 100 µM |  | > 100 µM | > 100 µM | > 100 µM | > 100 µM | > 100 µM |  |  |  |  |  |  |  |  |  | 
COC(=O)C1=C(O)C(C(=O)OC)C2CC(=O)CC1C2(C)C (stereo unspecified) | > 100 µM | > 100 µM |  | > 100 µM | > 100 µM | > 100 µM | > 100 µM | > 100 µM | > 100 µM | > 100 µM |  |  |  |  |  |  |  |  |  | 
O=C1C2C3C=C4c5ccccc5N(c5ccccc5)C4(C2C(=O)N1c1ccccc1)C1C(=O)N(c2ccccc2)C(=O)C31 (stereo unspecified) | > 100 µM | > 100 µM | > 100 µM | > 100 µM | > 100 µM |  | > 100 µM |  | > 100 µM | > 100 µM |  |  |  |  |  |  |  |  |  | 
O=C(Oc1cccnc1)c1cccnc1Nc1ccnc(C(F)(F)F)c1 | > 100 µM | 18.2 µM | 26 µM | 22.4 µM | 36 µM | 24.1 µM | 35.3 µM |  | > 100 µM | > 100 µM | 30.8 µM | 4.01 µM | 8.16 µM | 5.17 µM | 5.78 µM | 16.8 µM |  | 6.38 µM | 27.2 µM | 13.7 µM
CC(=O)Nc1ccc(-c2cc(C(=O)O)c3cc4ccccc4cc3n2)cc1 | > 100 µM | > 100 µM | > 100 µM | > 100 µM | > 100 µM | > 100 µM |  | > 100 µM | > 100 µM | > 100 µM |  |  |  |  |  |  |  |  |  | 
CCc1c(C#N)c(=O)[nH]c(=O)n1CCN1CCN(C(=O)NCCCCCCNC(=O)N2CCN(CCn3c(CC)c(C#N)c(=O)[nH]c3=O)CC2)CC1 | > 100 µM |  | > 100 µM | > 100 µM | > 100 µM | > 100 µM | > 100 µM | > 100 µM |  | > 100 µM |  |  |  |  |  |  |  |  |  | 
O=[N+]([O-])c1ccccc1N=Nc1c(O)[nH]c2cccc(C(F)(F)F)c12 | > 100 µM | > 100 µM | > 100 µM | 60 µM | 82.8 µM | > 100 µM | > 100 µM |  | 88 µM | > 100 µM |  |  |  |  |  |  |  |  |  | 
Oc1cccc(Nc2nc3ccccc3c3occc23)c1 |  | 13 µM | 22.4 µM | 21.4 µM | 33.5 µM | 23.1 µM | 11.3 µM | 29.6 µM |  | 33.8 µM |  | 3.24 µM | 3.25 µM | 9.73 µM | 11.1 µM | 2.67 µM | 16.1 µM |  | 15 µM | 15.1 µM
COC1=NCc2ccccc2-c2ccccc21 | > 100 µM | > 100 µM | > 100 µM | > 100 µM |  | > 100 µM |  | > 100 µM | > 100 µM | > 100 µM |  |  |  |  |  |  |  |  |  | 
c1ccc(NN(Cc2cnccn2)c2ccccc2)cc1 | > 100 µM | > 100 µM | > 100 µM | > 100 µM | > 100 µM | > 100 µM |  | > 100 µM | > 100 µM | > 100 µM |  |  |  |  |  |  |  |  |  | 
